According to patent publication US20110045101A1, “FUNGICIDAL SUBSTITUTED AZOLES” (E.I. Du Pont De Nemours and Company, priority 2009, published 2011):
Marks after values point to notes of the source that are not given here.

What was measured:
Assay type in all cases: in vivo
Conditions in all cases: 100 = 100% disease control
[1] = system: Puccinia recondita f. sp. tritici; experiment: Test I: wheat leaf rust on wheat seedlings, sprayed the day before inoculation, visual disease rating
Procedure, shortened: (§1)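 Spray suspension: acetone 3% of final volume, then 50/50 acetone/water plus 250 ppm Trem® 014. Applied to run-off on seedlings at 200 ppm (≈500 g/ha); starred entries tested at 40 ppm.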

[2] = system: Puccinia recondita f. sp. tritici; experiment: Test H: wheat leaf rust, test suspension sprayed after inoculation of wheat seedlings, visual disease rating
Procedure, shortened: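 Wheat seedlings inoculated with P. recondita spores, held 24 h saturated at 20 °C, then 2 days in growth chamber at 20 °C; compound suspension (acetone/water with Trem 014) sprayed to run-off afterwards. Rated visually; 200 ppm (≈500 g/ha) unless marked *, which denotes 40 ppm.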

[3] = system: Septoria tritici; experiment: Test G: wheat leaf blotch on wheat seedlings, sprayed the day before inoculation, visual disease rating
Procedure, shortened: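 Wheat seedlings were sprayed to run-off with test suspension (acetone/water plus surfactant), generally 200 ppm (≈500 g/ha), or 40 ppm where marked. Septoria tritici spores were inoculated the next day; plants were held 48 h at 24°C in saturated atmosphere, then 19 days at 20°C before visual disease rating.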

[4] = system: Botrytis cinerea; experiment: Test C: tomato Botrytis on tomato seedlings, sprayed the day before inoculation, visual disease rating
Procedure, shortened: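 Spray to run-off on tomato seedlings; test conc. 200 ppm (≈500 g/ha), some entries 40 ppm. Formulation: acetone 3% of final vol., then acetone/water 50:50 + 250 ppm polyhydric alcohol ester surfactant.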

[5] = system: Alternaria solani; experiment: Test D: tomato early blight, sprayed the day before inoculation, visual disease rating
Procedure, shortened: as §1

[6] = system: Septoria nodorum; experiment: Test F: wheat glume blotch on wheat seedlings, sprayed the day before inoculation, visual disease rating
Procedure, shortened: as §1

[7] = system: Erysiphe graminis f. sp. tritici; experiment: Test J: wheat powdery mildew on wheat seedlings, sprayed the day before inoculation, visual disease rating
Procedure, shortened: as §1

[8] = 200 ppm, 0 = no control relative to controls

Row | Compound | Test I disease control rating ([1]; 40 ppm (marked *)) | Test H disease control rating ([2]; 40 ppm (marked *)) | Test G disease control rating ([3]; 40 ppm (marked *)) | Test C disease control rating ([4]; 40 ppm (marked *)) | Test D disease control rating ([5]; 40 ppm (marked *)) | Test F disease control rating ([6]; 40 ppm (marked *)) | Test J disease control rating ([7]; 40 ppm (marked *)) | Test I disease control rating [1, 8] [%] | Test H disease control rating [2, 8] [%] | Test G disease control rating [3, 8] [%] | Test C disease control rating [4, 8] [%] | Test D disease control rating [5, 8] [%] | Test F disease control rating [6, 8] [%] | Test J disease control rating [7, 8] [%]
1 | 5-[4-chloro-5-(2,6-difluoro-4-methoxyphenyl)-1H-imidazol-1-yl]-2-(trifluoromethyl)pyridine [Example 34] | 100* % | 91* % | 90* % | 99* % | 100* % | 99* % | 100* % |  |  |  |  |  |  | 
2 | COc1ccc(F)c(-c2c(Cl)nc(C)n2-c2ccc(C#N)cc2)c1F [compound 615] |  |  |  |  |  |  |  | 99 | 0 | 100 | 100 | 100 | 0 | 100
3 | Cc1ncn(-c2ccc(Cl)c(F)c2)c1-c1sc(Cl)nc1Cl [compound 377] |  |  |  |  |  |  |  | 27 | 0 | 3 | 0 | 0 | 0 | 33
4 | COc1cc(F)c(-n2nnc(C)c2-c2ccc(Cl)cc2)c(F)c1 [compound 595] |  |  |  |  |  |  |  | 74 | 22 | 96 | 100 | 80 | 0 | 98
5 | COc1ccc(F)c(-c2c(Cl)nc(Cl)n2-c2ccc(Cl)cc2)c1Cl [compound 481] |  |  |  |  |  |  |  | 97 | 0 | 95 | 100 | 100 | 99 | 100
6 | COc1cc(F)c(-c2c(Cl)nc(Br)n2-c2ccc(OC(F)F)cc2)c(F)c1 [compound 546] |  |  |  |  |  |  |  | 100 | 0 | 98 | 100 | 100 | 99 | 100
7 | CCc1cccc(-n2c(Br)nc(Cl)c2-c2c(F)ccc(OC)c2F)c1 [compound 398] |  |  |  |  |  |  |  | 79 | 0 | 96 | 100 | 80 | 79 | 100
8 | Cc1ccc(-n2c(Cl)nc(Br)c2-c2c(F)ccc(F)c2F)cc1 [compound 465] | 99* % | 0* % | 88* % | 100* % | 99* % | 0* % | 99* % |  |  |  |  |  |  | 
9 | Fc1cc(F)c(-c2c(Cl)nc(Cl)n2-c2ccc(OC(F)(F)F)cc2)c(F)c1 [compound 600] |  |  |  |  |  |  |  | 0 | 7 | 94 | 86 | 100 | 0 | 99
10 | Cc1nc(Cl)c(-c2c(F)cc(F)cc2F)n1-c1cccc(OC(F)F)c1 [compound 609] |  |  |  |  |  |  |  | 100 | 100 | 99 | 99 | 100 | 100 | 100
11 | Cc1nc(Cl)c(-c2c(F)cc(F)cc2F)n1-c1ccc(OC(F)(F)F)cc1 [compound 612] |  |  |  |  |  |  |  | 8 | 0 | 96 | 99 | 100 | 60 | 100
12 | COc1cc(F)c(-c2c(Cl)nc(C)n2-c2ccc(C)c(C#N)c2)c(F)c1 [compound 613] | 97* % | 15* % | 99* % | 99* % | 100* % | 64* % | 21* % |  |  |  |  |  |  | 
13 | Cc1ccc(-n2c(Br)nc(Br)c2-c2c(F)ccc(F)c2Cl)cc1 [compound 460] | 93* % | 0* % | 97* % | 99* % | 85* % | 0* % | 96* % |  |  |  |  |  |  | 
